1 substance from patent publication US11229680B2, “Autophagy inhibitors” (The Hong Kong University of Science and Technology, priority 2017, dated 2022) can be followed below.

Assay [1] relates to C. elegans. In words: C. elegans hatching and development. The assay is classed as in vivo. Particulars: Pnfya-1::Cherry fusion. From the text: Autophagy plays critical roles in various physiological processes occurring during development or in adult C. elegans (Zhang et al., 2015). Fewer autophagy mutants develop into larvae. […] 60.8% embryos expressing the AnkB WT peptide hatched, compared to 96.9% of embryos expressing AnkB WR (FIG. 8G). Autophagy mutants also grow slowly. […] Thus, the AnkB WT peptide blocks autophagy during C. elegans development.

Assay [2] deals with T1, LGG-2 (Caenorhabditis elegans, UniProt Q23536).
T1 sequence (Q23536 1-130): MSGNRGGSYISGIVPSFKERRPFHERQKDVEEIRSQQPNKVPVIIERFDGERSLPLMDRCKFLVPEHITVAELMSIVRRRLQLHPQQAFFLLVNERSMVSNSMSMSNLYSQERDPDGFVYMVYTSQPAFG
Nature of the assay: ITC binding to purified LGG-2. Details: species or system C. elegans. The note with it: purified LGG-2. An excerpt: (§1) C. elegans provides an ideal platform to study autophagy and especially to investigate roles of different members of Atg8 in autophagy, because worms contain both GABARAP and LC3 subfamily Atg8s and yet simple enough with one gene for each subfamily (worm lgg-1 and lgg-2 are […] of GABARAP and LC3, respectively). It has also been shown earlier on that lgg-1 and lgg-2 act non-redundantly in autophagy (Wu et al., 2015). Prior to performing autophagy assays in worms, we measured the bindings of various AnkB/G LIR peptides to purified LGG-1 and LGG-2 using the same method as we have described for FIGS. 1&3.

For assay [3], the system named is all members of the Atg8 family. In words: ITC binding to all members of the Atg8 family. Further details: species or system human. From the text:
The 440 kD AnkB and 480 kD AnkG both contain a giant exon encoding several thousand amino acid residues, though the homology between the two giant exon coding sequences is very limited. The 440 kD AnkB is also a neuronal specific isoform, and is mainly expressed in unmyelinated/premyelinated axons.
Thus, we will not describe the overall structures of the two complexes any further, except to note that the AnkB LIR also contains a well-defined C-helix extension following the LIR core motif.

In assay [4] the test system is GFP-RFP-LC3B puncta in COS7 cells. In words: Autophagosome marker co-localization in COS7 cells co-transfected with GFP-RFP-LC3B. Particulars: Myc tagged peptide, low expression level. It counts as cell-based. An excerpt: We next tried to explore the potential applications of the Ank-derived peptides as autophagosome markers. The COS7 cells were co-transfected with GFP-RFP-LC3B and Myc tagged AnkB WT or AnkB WR peptides. […] LC3B are mainly localized on the autophagosome as vast majority of the puncta are both green and red (FIG. 11A).

Assay [5] concerns LC3-positive puncta in COS7 cells. Nature of the assay: LC3-positive puncta in starved COS7 cells. The assay is classed as cell-based. The note with it: COS7 cells over-expressing mCherry-tagged peptide, nutrients deprivation. An excerpt: (§2) We used the well-established cultured COS7 cells for assessing autophagy inhibitions by the AnkB/G LIR peptides over-expressed in the cells. We quantified the numbers of endogenous LC3- or GABARAP-positive puncta, which represent LC3 or GABARAP-containing autophagic structures, as readouts to quantify autophagy inhibitions (Klionsky et al., 2016; Mizushima et al., 2010). After nutrients deprivation, obvious accumulations of LC3- or GABARAP-positive puncta could be observed in cells over-expressing mCherry only, indicating induction of autophagy by starvation (FIG. 6C6&E6). […] In contrast, expression of the mCherry-AnkB WR peptide had no impact on the LC3- or GABARAP-puncta numbers (i.e. with the same puncta numbers as expressing the mCherry vector control; FIG. 6C-F).

Assay [6] deals with LGG-1 (Caenorhabditis elegans, UniProt Q09490). Nature of the assay: ITC binding to purified LGG-1. Further details: species or system C. elegans.
LGG-1, sequence (Q09490 1-116 limits assumed): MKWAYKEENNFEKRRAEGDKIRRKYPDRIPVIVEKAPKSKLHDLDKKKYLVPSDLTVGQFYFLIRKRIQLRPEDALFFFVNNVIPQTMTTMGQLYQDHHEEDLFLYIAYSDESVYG
Description: as §1

In assay [7] the test system is p62-positive puncta in COS7 cells. Nature of the assay: p62-positive puncta in starved COS7 cells. The assay is classed as cell-based. The note with it: COS7 cells expressing mCherry-tagged peptide, starvation. An excerpt:
We further quantified the level of p62, one of the best studied selective autophagy substrates, to monitor the autophagic flux in COS7 cells expressing various AnkB/G LIR peptides under the starvation condition (Klionsky et al., 2016; Mizushima et al., 2010). Upon autophagy induction, p62 forms aggregates via its LIR motif-mediated interactions to Atg8s and subsequent incorporation into autophagosomes (Bjorkoy et al., 2005; Pankiv et al., 2007). Only a relatively low and steady level of p62 aggregates is formed if autophagy flux is normal (i.e. p62-positive autophagosomes are steadily cleared by fusing with lysosomes; (Bjorkoy et al., 2005)), and this is indeed the case when cells were expressed with the mCherry vector control (FIG. 7F). […] This is consistent with a previous siRNA-based study showing that knockdown of LC3 but not GABARAP causes p62 accumulation in COS7 cells (Maruyama et al., 2014). Taken together, the above cell-based assays reinforce our earlier conclusion derived from biochemical and structural studies, that the AnkB WT peptide can function as potent autophagy inhibitor by targeting all members of the Atg8 family and the AnkG WT or ER peptides can selectively target the GABARAPs and spare the LC3s.

Assay [8] concerns C. elegans. In words: C. elegans life span. The assay is classed as in vivo. From the text:
Autophagy is known to regulate the adult worm aging process. […] The autophagy defect caused by AnkB was weaker than that in autophagy mutants.

Assay [9] has as its system SQST-1::GFP. In words: SQST-1::GFP aggregate accumulation in C. elegans expressing the peptides. The assay is classed as in vivo. An excerpt:
We next determined whether the AnkB WT peptide blocks autophagy in C. elegans. Autophagy is required for degradation of a variety of protein substrates, including the C. elegans p62 homolog SQST-1 during development (Tian et al., 2010). In the wild type animals, SQST-1::GFP is weakly expressed and diffusely localized in the cytoplasm, while numerous SQST-1 aggregates accumulate in autophagy mutants (Tian et al., 2010). The AnkB WT peptide fused with the Cherry reporter (Cherry::AnkB WT) or Cherry::AnkB WR was expressed under the control of the nfya-1 promoter, which is expressed ubiquitously from the embryonic to adult stages. The expression plasmids were injected into animals carrying integrated SQST-1::GFP reporter (bpIs151) and transgenic lines were obtained and analyzed.
Similarly, we also tested the blocking effect of AnkG peptides in C. elegans. […] This observation is somewhat different from that in mammalian heterologous cells. This may be explained by the different roles of the two families in different organisms. In mammal, p62 degradation is dependent on LC3 but not GABARAP (Maruyama et al., 2014), so blocking GABARAP binding has minimal effect on p62 degradation. However, in C. elegans, LGG-1 acts upstream to LGG-2 (Manil-Segalen et al., 2014; Wu et al., 2015), so blocking either of them will lead to defect in SQST-1 degradation.
Although a large collection of autophagy mutants were isolated from genetic screens (Tian et al., 2010), assays to inhibit autophagy activity in a spatiotemporal manner are not available. We investigated whether the AnkB peptide can block autophagy in a tissue- and temporal-specific manner. The AnkB peptide was expressed under the control of tissue-specific promoters, including the promoter of myo-3 for body wall muscle cells, y37A1B.5 for hypodermal cells and vha-6 for intestinal cells. The expression constructs were injected into animals carrying the corresponding tissue-specific SQST-1::GFP expression integrated lines.
We also examined whether the AnkB peptide can impair autophagy in a temporal control manner. The expression of AnkB WT was driven by the promoter of col-19, which is expressed in hypodermal cells from the young adult stage onwards.

Assay [10] deals with GABARAP-positive puncta in COS7 cells. Nature of the assay: GABARAP-positive puncta in starved COS7 cells. Particulars: COS7 cells over-expressing mCherry-tagged peptide, nutrients deprivation. The assay is classed as cell-based.
Description: as §2

As to “AnkB W1592R: AnkB LIR with Trp1592 substituted by Arg; control for functional studies (VEEERVIVSDEEIEEARQKAPLEITEY; AnkB W1592R human recombinant peptide, prepared in the lab)”, in [1], the “embryos hatched (hatch rate)” value was found to be 96.9%. Further, in [2], the “binding to LGG-2 (in words)” value is “eliminated the bindings”. For the same substance, in [3], the “binding to Atg8 family members (in words)” value was “dramatically decreased”. Further, in assay [4], the “localization relative to GFP-RFP-LC3B dual-color (autophagosome) puncta” value is reported as “diffused in the cells”. In addition, the LC3-positive puncta number entry in assay [5] is “no impact”. Further, the “binding to LGG-1 (in words)” value in [6] is “eliminated the bindings”. For the same substance, the “p62-positive puncta versus mCherry vector control” value in [7] is recorded as “neither of the AnkB/G WR peptides could induce p62-positive puncta increase”. For the same substance, the Median lifespan in assay [8] (Pmyo-3::ch:: fusion (muscle)) came to 18.72 days; in [8] (Pnfya-1::ch:: fusion (ubiquitous)) it was 19.15 days; in assay [8] (Pvha-6::ch:: fusion (intestine)), 18.13 days; in [8] (Py37a1b.5::ch:: fusion (hypodermal cells)), 18.63 days. The “SQST-1::GFP aggregates” value was “no SQST-1::GFP aggregates” in assay [9] (Cherry fusion, FIG. 8, embryo); “no SQST-1::GFP aggregates” in assay [9] (Cherry fusion, FIG. 8, larvae); “no SQST-1::GFP aggregates were formed” in assay [9] (Cherry fusion, nfya-1 promoter (ubiquitous), multiple tissues, embryonic to adult stages); “no SQST-1::GFP aggregates” in assay [9] (mCherry fusion, hypodermal cells, embryo (FIG. 9)); “no SQST-1::GFP aggregates” in assay [9] (mCherry fusion, hypodermis, L4 larvae (FIG. 9)); “no SQST-1::GFP aggregates” in assay [9] (myo-3 promoter, muscle cells, L4 larvae). Further, the “SQST-1::GFP aggregates” value in assay [9] (myo-3 promoter, muscle, embryo) is “no SQST-1::GFP”; in [9] (tissue-specific promoters myo-3, y37A1B.5, vha-6, embryonic to adult stages) it was “no accumulation”; in assay [9] (vha-6 promoter, intestine cells, embryo), “no SQST-1::GFP aggregates”; in assay [9] (vha-6 promoter, intestine cells, larvae (FIG. 10S, 10T)), “no SQST-1::GFP aggregates”. Besides, the GABARAP-positive puncta number entry in [10] is recorded as “no impact”.
